According to patent EP4807001A1, “MODIFICATION TEMPLATE FOR IMPROVING INHIBITORY EFFECT OF DOUBLE-STRANDED OLIGONUCLEOTIDE ON TARGET GENE, COMBINATION THEREOF AND USE THEREOF” (Hangzhou Tianlong Pharmaceutical Co., Ltd., priority 2023, dated 2025):

Tests used:
HBV = test: AAV-HBV mouse model, low dose 0.5 mg/kg (Example 15); assay type: in vivo, AAV-HBV mice; details: for Log10 HBV DNA (IU/mL) / Log10 HBeAg (S/CO) / Log10 HBsAg (IU/mL) / HBsAb: plasma; for Log10 HBV DNA (IU/mL) / Log10 HBeAg (S/CO) / Log10 HBsAg (IU/mL): AAV-HBV mice, siRNA 0.5 mg/kg s.c. D0/7/14, ETV 0.1 mg/kg daily i.g.
Experimental: In this example, several sequences were exemplarily selected, such as the sequences C207S-DV32SPG5, C207S-DV29SPG5, C418S-DV34SPd7BG5, and C1575-DV27PG5 from Example 14, as shown in Table 49. The in vivo efficacy of these RNAi agents at a low dose (e.g., 0.5 mg/kg) was analyzed using an AAV-HBV mouse model.
Refer to Example 7. Table 51-10: Details of grouping and dosing

[1] = Plasma ALT levels in AAV-HBV mice (Examples 14-16); assay type: in vivo
Experimental: At week 4 (D-14) and week 5 (D-7) post-modeling, on the day prior to dosing (D0), and weekly post-dosing, 200 µL of blood was collected from the inner canthus and added to an EDTA-K2 tube, followed by centrifugation at 1000 g for 10 minutes to obtain plasma. The 12 mice in the two groups were subjected to challenge on D60. 200 µL of blood was collected from the inner canthus on D63, D67, D74, and D81, respectively, and added to an EDTA-K2 tube, followed by centrifugation at 1000 g for 10 minutes to obtain plasma. 20 µL of plasma was added to 980 µL of PBS, vortexed thoroughly, and analyzed for HBsAg, HBV DNA, HBeAg, and ALT levels. Separately, 15 µL of plasma was added to 210 µL of PBS, vortexed thoroughly, and analyzed for HBsAb levels. All processed samples to be tested were analyzed by Guangzhou Huayin Medical Research Institute. The remaining plasma was stored at - 80°C.
Blood was collected from all animals via submandibular venipuncture on Days -2, 6, 13, 20, 27, and 34. The collected blood samples were anticoagulated with EDTA and centrifuged at 5000 rpm for 10 minutes to obtain serum. After blood collection, the serum was separated, diluted with PBS, and sent for analysis. A 10 µL aliquot of serum was taken from each sample, diluted to 500 µL with PBS (50-fold dilution), and sent to Beijing DIAN Medical Laboratory Co., Ltd. for analysis of serum HBV DNA, HBeAg, and HBsAg. A 30 µL aliquot of serum was taken from each sample, diluted to 120 µL with PBS (4-fold dilution), and sent to Beijing DIAN Medical Laboratory Co., Ltd. for analysis of serum ALT. The remaining plasma was stored at -80°C.

AGT mRNA = test: Inhibition of AGT mRNA expression in primary human hepatocytes via free uptake, qRT-PCR (Example 24); assay type: cell-based; details: 0.0064 nM to 100 nM, read-out: IC50 against AGT
Experimental: The inhibitory effects of the test samples on AGT mRNA expression in primary human hepatocytes were evaluated by qRT-PCR.
The culture medium was pre-warmed at a constant temperature of 37°C for at least 30 minutes. 300 µL of PBS was added to each well of a collagen-coated 24-well plate, which was shaken several times, and the PBS was aspirated. A cryovial containing hepatocytes was removed from liquid nitrogen, placed in a 37°C water bath, and gently shaken until only a small amount of ice crystals remained in the vial. The cell suspension was poured into thawing medium in one step. 1 mL of thawing medium was pipetted to rinse the inner wall of the cryovial 2 to 3 times. The cell suspension in thawing medium was mixed by inversion. The vial was centrifuged at 50 g for 5 minutes at room temperature, with acceleration set to 5 and deceleration set to 3. The cell suspension was diluted to 3 × 10^5 cells/mL in seeding medium, seeded into a 24-well plate at 0.5 mL per well, followed by incubation in an incubator for 24 hours.
The test samples were diluted to 100 to 0.0064 nM in primary human hepatocyte maintenance medium. […]
The RNA expression levels of the target gene in each sample were calculated based on Ct values using the ΔΔCt relative quantification method. Relative expression of the target gene was expressed as 2^-ΔΔCt. […]

For `C=C1[C@H](CO)[C@@H](O)C[C@@H]1n1cnc2c(=O)[nH]c(N)nc21` [entecavir], the “Number of mice producing HBsAb” value (HBV; D7, low dose 0.5 mg/kg) was 0, the “Number of mice producing HBsAb” value (HBV; D14, low dose 0.5 mg/kg) was 0 and the “Number of mice producing HBsAb” value (HBV; D21, low dose 0.5 mg/kg) was 0. For the same molecule, the “Number of mice producing HBsAb” value (HBV; D28, low dose 0.5 mg/kg) was 0, the “Number of mice producing HBsAb” value (HBV; D35, low dose 0.5 mg/kg) was 0 and the “Number of mice producing HBsAb” value (HBV; D42, low dose 0.5 mg/kg) was 0. For the same molecule, the “Number of mice producing HBsAb” value (HBV; D49, low dose 0.5 mg/kg) was 0, the “Number of mice producing HBsAb” value (HBV; D56, low dose 0.5 mg/kg) was 0 and the “Log10 HBV DNA (IU/mL)” value (HBV; D0) was 6.91 ± 0.58 IU/mL. For the same molecule, the “Log10 HBeAg (S/CO)” value (HBV; D0) was 3.73 ± 0.06 S/CO, the “Log10 HBsAg (IU/mL)” value (HBV; D0) was 3.47 ± 0.34 IU/mL and the “Log10 HBV DNA (IU/mL)” value (HBV; D7) was 4.49 ± 0.54 IU/mL. For the same molecule, the “Log10 HBeAg (S/CO)” value (HBV; D7) was 3.72 ± 0.05 S/CO, the “Log10 HBsAg (IU/mL)” value (HBV; D7) was 3.50 ± 0.33 IU/mL and the “Log10 HBV DNA (IU/mL)” value (HBV; D14) was 3.85 ± 0.24 IU/mL. The “Log10 HBeAg (S/CO)” value (HBV; D14) was 3.72 ± 0.03 S/CO, the “Log10 HBsAg (IU/mL)” value (HBV; D14) was 3.54 ± 0.25 IU/mL and the “Log10 HBV DNA (IU/mL)” value (HBV; D21) was 3.89 ± 0.31 IU/mL. For the same molecule, the “Log10 HBeAg (S/CO)” value (HBV; D21) was 3.66 ± 0.05 S/CO, the “Log10 HBsAg (IU/mL)” value (HBV; D21) was 3.74 ± 0.14 IU/mL and the “Log10 HBV DNA (IU/mL)” value (HBV; D28) was 3.77 ± 0.37 IU/mL. The “Log10 HBeAg (S/CO)” value (HBV; D28) was 3.71 ± 0.06 S/CO, the “Log10 HBsAg (IU/mL)” value (HBV; D28) was 3.94 ± 0.27 IU/mL and the “Log10 HBV DNA (IU/mL)” value (HBV; D35) was 3.74 ± 0.25 IU/mL. For the same molecule, the “Log10 HBeAg (S/CO)” value (HBV; D35) was 3.66 ± 0.05 S/CO, the “Log10 HBsAg (IU/mL)” value (HBV; D35) was 3.96 ± 0.39 IU/mL and the “Log10 HBV DNA (IU/mL)” value (HBV; D42) was 3.63 ± 0.08 IU/mL. For the same molecule, the “Log10 HBeAg (S/CO)” value (HBV; D42) was 3.68 ± 0.05 S/CO, the “Log10 HBsAg (IU/mL)” value (HBV; D42) was 4.04 ± 0.40 IU/mL and the “Log10 HBV DNA (IU/mL)” value (HBV; D49) was 3.97 ± 0.13 IU/mL. The “Log10 HBeAg (S/CO)” value (HBV; D49) was 3.69 ± 0.08 S/CO, the “Log10 HBsAg (IU/mL)” value (HBV; D49) was 4.22 ± 0.33 IU/mL and the “Log10 HBV DNA (IU/mL)” value (HBV; D56) was 4.04 ± 0.32 IU/mL. The “Log10 HBeAg (S/CO)” value (HBV; D56) was 3.70 ± 0.04 S/CO, the “Log10 HBsAg (IU/mL)” value (HBV; D56) was 4.20 ± 0.30 IU/mL and the “Log10 HBV DNA (IU/mL)” value (HBV; D-7 (before dosing)) was 6.65 ± 0.58 IU/mL. For the same molecule, the “Log10 HBeAg (S/CO)” value (HBV; D-7 (before dosing)) was 3.77 ± 0.06 S/CO, the “Log10 HBsAg (IU/mL)” value (HBV; D-7 (before dosing)) was 3.36 ± 0.26 IU/mL and the HBsAb (HBV; D7, low dose 0.5 mg/kg) was 30 mIU/mL. It also gave an HBsAb (HBV; D14, low dose 0.5 mg/kg) of 30 mIU/mL, an HBsAb (HBV; D21, low dose 0.5 mg/kg) of 30 mIU/mL and an HBsAb (HBV; D28, low dose 0.5 mg/kg) of 30 mIU/mL. For the same molecule, the HBsAb (HBV; D35, low dose 0.5 mg/kg) was 30 mIU/mL, the HBsAb (HBV; D42, low dose 0.5 mg/kg) was 30 mIU/mL and the HBsAb (HBV; D49, low dose 0.5 mg/kg) was 30 mIU/mL. For the same molecule, the HBsAb (HBV; D56, low dose 0.5 mg/kg) was 30 mIU/mL, the ALT ([1]; D7, Example 15 (low dose 0.5 mg/kg)) was 75 U/L and the ALT ([1]; D14, Example 15 (low dose 0.5 mg/kg)) was 75 U/L. For the same molecule, the ALT ([1]; D21, Example 15 (low dose 0.5 mg/kg)) was 75 U/L, the ALT ([1]; D28, Example 15 (low dose 0.5 mg/kg)) was 75 U/L and the ALT ([1]; D35, Example 15 (low dose 0.5 mg/kg)) was 75 U/L. For the same molecule, the ALT ([1]; D42, Example 15 (low dose 0.5 mg/kg)) was 75 U/L.
In the case of Zilebesiran, the IC50 (AGT mRNA) is reported as 7.07 nM.
